Earlier results as cited in PMC5897141 (Journal of neurochemistry, 2018).

What was measured:
[1] = test system: σ1/2 receptors; conditions: ref Shiba et al. 2006, Kawamura et al. 2006; cited from earlier work
[2] = test system: VAChT; conditions: NHP brain; ref Nishiyama et al. 2014; cited from earlier work

For `Cc1cccc2c1C[C@@H](O)[C@H](N1CCN(c3ccccc3N)CC1)C2` (relative stereo) [[^11C](R,R)HAPT, (R,R)-trans-8-methyl-2-hydroxy-3-[4-[2-aminophenyl]-piperizinyl]tetralin, reference compound], the “selectivity for VAChT versus σ1/2 receptors” value [1] is listed as 10 fold and the “time-activity curves peak time post injection” value [2] is listed as at most 20 min.
